Assay results from ChEMBL document CHEMBL5143550, “Thiol- and Disulfide-Containing Vancomycin Derivatives Against Bacterial Resistance and Biofilm Formation” (2021).
Values after ≈ are worked out from the molar mass of the structure shown.

Columns and labels:
Format in all cases: functional
Clostridioides difficile [1] = assay: Antibacterial activity against Clostridium difficile ATCC 43255 assessed as inhibition of bacterial growth by standard broth microdilution susceptibility method
Enterococcus faecalis [2] = assay: Antibiofilm activity against VanB-resistant Enterococcus faecalis ATCC 51299 assessed as inhibition of biofilm formation in BHIG medium incubated for 24 hrs by resazurin assay
Moraxella catarrhalis = assay: Antibacterial activity against Moraxella catarrhalis ATCC 8193 assessed as inhibition of bacterial growth by standard broth microdilution susceptibility method
Enterococcus gallinarum [3] = assay: Antibacterial activity against VanC-resistant Enterococcus gallinarum ATCC 700221 assessed as inhibition of bacterial growth by standard broth microdilution susceptibility method
Staphylococcus aureus [4] = assay: Antibacterial activity against methicillin-resistant Staphylococcus aureus ATCC 43300 assessed as inhibition of bacterial growth by standard broth microdilution susceptibility method
Enterococcus faecium [5] = assay: Antibacterial activity against VanA-resistant Enterococcus faecium MMX0485 assessed as inhibition of bacterial growth by standard broth microdilution susceptibility method
Enterococcus faecalis [6] = assay: Potency index, ratio of vancomycin MIC to test compound MIC for antibacterial activity against VanB-resistant Enterococcus faecalis ATCC 51299 assessed as inhibition of bacterial growth by standard broth microdilution susceptibility method
Enterococcus faecalis [7] = assay: Antibacterial activity against VanB-resistant Enterococcus faecalis ATCC 51299 assessed as inhibition of colony formation in BHIG medium incubated for 24 hrs by resazurin assay
Enterococcus faecalis [8] = assay: Antibacterial activity against VanB-resistant Enterococcus faecalis ATCC 51299 assessed as inhibition of bacterial growth by standard broth microdilution susceptibility method
Staphylococcus aureus [9] = assay: Antibacterial activity against heterogenous vancomycin-intermediate Staphylococcus aureus ATCC NRS24 assessed as inhibition of bacterial growth by standard broth microdilution susceptibility method
Staphylococcus aureus [10] = assay: Antibacterial activity against Staphylococcus aureus ATCC 25923 assessed as inhibition of bacterial growth by standard broth microdilution susceptibility method
Enterococcus faecalis [11] = assay: Antibiofilm activity against VanB-resistant Enterococcus faecalis ATCC 51299 assessed as inhibition of biofilm formation by measuring decrease in RFU in BHIG medium incubated for 24 hrs by resazurin assay
Staphylococcus aureus [12] = assay: Antibacterial activity against vancomycin-intermediate Staphylococcus aureus ATCC NRS1 assessed as inhibition of bacterial growth by standard broth microdilution susceptibility method
Streptococcus pneumoniae [13] = assay: Antibacterial activity against […] assessed as inhibition of bacterial growth by standard broth microdilution susceptibility method
Enterococcus faecium [14] = assay: Potency index, ratio of vancomycin MIC to test compound MIC for antibacterial activity against VanA-resistant Enterococcus faecium MMX0485 assessed as inhibition of bacterial growth by standard broth microdilution susceptibility method
Enterococcus gallinarum [15] = assay: Potency index, ratio of vancomycin MIC to test compound MIC for antibacterial activity against VanC-resistant Enterococcus gallinarum ATCC 700221 assessed as inhibition of bacterial growth by standard broth microdilution susceptibility method
Enterococcus faecalis [16] = assay: Antibacterial activity against VanB-resistant Enterococcus faecalis ATCC 51299 assessed as inhibition of bacterial growth in BHIG medium incubated for 24 hrs by resazurin assay
Enterococcus faecalis [17] = assay: Antibiofilm activity against VanB-resistant Enterococcus faecalis ATCC 51299 assessed as inhibition of biofilm formation in BHIG medium incubated for 24 hrs by resazurin assay relative to vancomycin
Staphylococcus aureus [18] = assay: Potency index, ratio of vancomycin MIC to test compound MIC for antibacterial activity against vancomycin-intermediate Staphylococcus aureus ATCC NRS1 assessed as inhibition of bacterial growth by standard broth microdilution susceptibility method
Staphylococcus aureus [19] = assay: Potency index, ratio of vancomycin MIC to test compound MIC for antibacterial activity against heterogenous vancomycin-intermediate Staphylococcus aureus ATCC NRS24 assessed as inhibition of bacterial growth by standard broth microdilution susceptibility method
Clostridioides difficile [20] = assay: Potency index, ratio of vancomycin MIC to test compound MIC for antibacterial activity against Clostridium difficile ATCC 43255 assessed as inhibition of bacterial growth by standard broth microdilution susceptibility method
Streptococcus pneumoniae [21] = assay: Potency index, ratio of vancomycin MIC to test compound MIC for antibacterial activity against […] assessed as inhibition of bacterial growth by standard broth microdilution susceptibility method

Row | SMILES | MIC (Clostridioides difficile [1]) | MBIC (Enterococcus faecalis [2]) | MIC (Moraxella catarrhalis) | MIC (Enterococcus gallinarum [3]) | MIC (Staphylococcus aureus [4]) | MIC (Enterococcus faecium [5]) | Ratio (Enterococcus faecalis [6]) | Activity (Enterococcus faecalis [7]) | MIC (Enterococcus faecalis [8]) | MIC (Staphylococcus aureus [9]) | MIC (Staphylococcus aureus [10]) | inhibition (INH) (Enterococcus faecalis [11]) | MIC (Staphylococcus aureus [12]) | MIC (Streptococcus pneumoniae [13]) | Ratio (Enterococcus faecium [14]) | Ratio (Enterococcus gallinarum [15]) | inhibition (INH) (Enterococcus faecalis [16]) | Ratio (Enterococcus faecalis [17]) | also measured
1 | CN[C@H](CC(C)C)C(=O)N[C@H]1C(=O)N[C@@H](CC(N)=O)C(=O)N[C@H]2C(=O)N[C@H]3C(=O)N[C@H](C(=O)N[C@H](C(=O)NCCSSCCCCC[N+](C)(C)C)c4cc(O)cc(O)c4-c4cc3ccc4O)[C@H](O)c3ccc(c(Cl)c3)Oc3cc2cc(c3O[C@@H]2O[C@H](CO)[C@@H](O)[C@H](O)[C@H]2O[C@H]2C[C@](C)(N)[C@H](O)[C@H](C)O2)Oc2ccc(cc2Cl)[C@H]1O | ≤ 0.015 µg/mL | 16 µg/mL | 2 µg/mL | 4 µg/mL | 0.5 µg/mL | 16 µg/mL | 8 | 16 µg/mL | 8 µg/mL | > 32 µg/mL | 1 µg/mL | 87% | 1 µg/mL | 0.06 µg/mL | 8 | 8 | 97% | – | –
2 | CN[C@H](CC(C)C)C(=O)N[C@H]1C(=O)N[C@@H](CC(N)=O)C(=O)N[C@H]2C(=O)N[C@H]3C(=O)N[C@H](C(=O)N[C@H](C(=O)NCCSSCCNC(=O)CCSC(c4ccccc4)(c4ccccc4)c4ccccc4)c4cc(O)cc(O)c4-c4cc3ccc4O)[C@H](O)c3ccc(c(Cl)c3)Oc3cc2cc(c3O[C@@H]2O[C@H](CO)[C@@H](O)[C@H](O)[C@H]2O[C@H]2C[C@](C)(N)[C@H](O)[C@H](C)O2)Oc2ccc(cc2Cl)[C@H]1O | – | 2 µg/mL | – | 1 µg/mL (≈ 0.522 µM) | 4 µg/mL (≈ 2.09 µM) | – | 8 | 2 µg/mL | 2 µg/mL (≈ 1.04 µM) | – | 8 µg/mL (≈ 4.18 µM) | 97% | – | – | 8 | 8 | 100% | 32 | Ratio (Staphylococcus aureus [18]): 8; Ratio (Staphylococcus aureus [19]): 8
3 | CN[C@H](CC(C)C)C(=O)N[C@H]1C(=O)N[C@@H](CC(N)=O)C(=O)N[C@H]2C(=O)N[C@H]3C(=O)N[C@H](C(=O)N[C@H](C(=O)NCCCS)c4cc(O)cc(O)c4-c4cc3ccc4O)[C@H](O)c3ccc(c(Cl)c3)Oc3cc2cc(c3O[C@@H]2O[C@H](CO)[C@@H](O)[C@H](O)[C@H]2O[C@H]2C[C@](C)(N)[C@H](O)[C@H](C)O2)Oc2ccc(cc2Cl)[C@H]1O | 0.12 µg/mL (≈ 0.0788 µM) | 4 µg/mL | 16 µg/mL (≈ 10.5 µM) | 1 µg/mL (≈ 0.657 µM) | 4 µg/mL (≈ 2.63 µM) | 1 µg/mL (≈ 0.657 µM) | – | 4 µg/mL | 4 µg/mL (≈ 2.63 µM) | > 32 µg/mL | 4 µg/mL (≈ 2.63 µM) | 95% | 8 µg/mL (≈ 5.25 µM) | ≤ 0.03 µg/mL | – | – | 100% | 16 | –
4 | CN[C@H](CC(C)C)C(=O)N[C@H]1C(=O)N[C@@H](CC(N)=O)C(=O)N[C@H]2C(=O)N[C@H]3C(=O)N[C@H](C(=O)N[C@H](C(=O)NCCS)c4cc(O)cc(O)c4-c4cc3ccc4O)[C@H](O)c3ccc(c(Cl)c3)Oc3cc2cc(c3O[C@@H]2O[C@H](CO)[C@@H](O)[C@H](O)[C@H]2O[C@H]2C[C@](C)(N)[C@H](O)[C@H](C)O2)Oc2ccc(cc2Cl)[C@H]1O | – | 4 µg/mL | – | 2 µg/mL (≈ 1.33 µM) | 4 µg/mL (≈ 2.65 µM) | – | – | 4 µg/mL | 2 µg/mL (≈ 1.33 µM) | – | 4 µg/mL (≈ 2.65 µM) | 99% | – | – | – | – | 100% | 16 | –
5 | CN[C@H](CC(C)C)C(=O)N[C@H]1C(=O)N[C@@H](CC(N)=O)C(=O)N[C@H]2C(=O)N[C@H]3C(=O)N[C@H](C(=O)N[C@H](C(=O)NCCSSCCCCCCCCCCC[N+](C)(C)C)c4cc(O)cc(O)c4-c4cc3ccc4O)[C@H](O)c3ccc(c(Cl)c3)Oc3cc2cc(c3O[C@@H]2O[C@H](CO)[C@@H](O)[C@H](O)[C@H]2O[C@H]2C[C@](C)(N)[C@H](O)[C@H](C)O2)Oc2ccc(cc2Cl)[C@H]1O | 1 µg/mL | 4 µg/mL | 1 µg/mL | 2 µg/mL | 0.5 µg/mL | 16 µg/mL | 8 | 4 µg/mL | 2 µg/mL | 8 µg/mL | 1 µg/mL | 84% | 0.25 µg/mL | 0.12 µg/mL | 8 | 8 | 98% | 16 | –
6 | CN[C@H](CC(C)C)C(=O)N[C@H]1C(=O)N[C@@H](CC(N)=O)C(=O)N[C@H]2C(=O)N[C@H]3C(=O)N[C@H](C(=O)N[C@H](C(=O)NCCCCCS)c4cc(O)cc(O)c4-c4cc3ccc4O)[C@H](O)c3ccc(c(Cl)c3)Oc3cc2cc(c3O[C@@H]2O[C@H](CO)[C@@H](O)[C@H](O)[C@H]2O[C@H]2C[C@](C)(N)[C@H](O)[C@H](C)O2)Oc2ccc(cc2Cl)[C@H]1O | 0.06 µg/mL (≈ 0.0387 µM) | 32 µg/mL | 4 µg/mL (≈ 2.58 µM) | 0.5 µg/mL (≈ 0.322 µM) | 8 µg/mL (≈ 5.16 µM) | 1 µg/mL (≈ 0.645 µM) | – | 32 µg/mL | 1 µg/mL (≈ 0.645 µM) | > 32 µg/mL | 8 µg/mL (≈ 5.16 µM) | 99% | 2 µg/mL (≈ 1.29 µM) | ≤ 0.03 µg/mL | – | – | 100% | – | Ratio (Clostridioides difficile [20]): 16; Ratio (Streptococcus pneumoniae [21]): 16
7 | CN[C@H](CC(C)C)C(=O)N[C@H]1C(=O)N[C@@H](CC(N)=O)C(=O)N[C@H]2C(=O)N[C@H]3C(=O)N[C@H](C(=O)N[C@H](C(=O)NCCSSCC[N+](C)(C)C)c4cc(O)cc(O)c4-c4cc3ccc4O)[C@H](O)c3ccc(c(Cl)c3)Oc3cc2cc(c3O[C@@H]2O[C@H](CO)[C@@H](O)[C@H](O)[C@H]2O[C@H]2C[C@](C)(N)[C@H](O)[C@H](C)O2)Oc2ccc(cc2Cl)[C@H]1O | ≤ 0.015 µg/mL | 16 µg/mL | 2 µg/mL | 4 µg/mL | 0.5 µg/mL | 32 µg/mL | 8 | 16 µg/mL | 16 µg/mL | > 32 µg/mL | 1 µg/mL | 91% | 0.5 µg/mL | 0.25 µg/mL | 8 | 8 | 100% | – | –
8 | CN[C@H](CC(C)C)C(=O)N[C@H]1C(=O)N[C@@H](CC(N)=O)C(=O)N[C@H]2C(=O)N[C@H]3C(=O)N[C@H](C(=O)N[C@H](C(=O)NCCCCCNC(=O)CCCCC4CCSS4)c4cc(O)cc(O)c4-c4cc3ccc4O)[C@H](O)c3ccc(c(Cl)c3)Oc3cc2cc(c3O[C@@H]2O[C@H](CO)[C@@H](O)[C@H](O)[C@H]2O[C@H]2C[C@](C)(N)[C@H](O)[C@H](C)O2)Oc2ccc(cc2Cl)[C@H]1O (some centres undefined) | 0.06 µg/mL (≈ 0.0348 µM) | 8 µg/mL | 4 µg/mL (≈ 2.32 µM) | 8 µg/mL (≈ 4.65 µM) | 2 µg/mL (≈ 1.16 µM) | > 32 µg/mL | – | 8 µg/mL | 4 µg/mL (≈ 2.32 µM) | 32 µg/mL (≈ 18.6 µM) | 2 µg/mL (≈ 1.16 µM) | 100% | 1 µg/mL (≈ 0.581 µM) | 0.06 µg/mL (≈ 0.0348 µM) | – | – | 100% | – | Ratio (Staphylococcus aureus [18]): 4; Ratio (Clostridioides difficile [20]): 4; Ratio (Streptococcus pneumoniae [21]): 4; Ratio (Staphylococcus aureus [19]): 4
